# Like-named read-outs stand apart in the source and are kept apart here.
# Legend:
# Format in all cases: binding
# [1] = target: T1, BRD9 (Homo sapiens, UniProt Q9H8M2); assay: Isothermal titration calorimetry, BRD9; conditions: for Kd / TΔS / ΔG / N (stoichiometry) / ΔHobs: ITC, 15 °C; for Kd: 50 mM HEPES pH 7.5, 150 mM NaCl, triplicate, read-out: KD; for Kd / N (stoichiometry) / ΔHobs: reverse titration; for LE (ligand efficiency): LE = ΔG/N, N number of non-hydrogen atoms
# T1 construct: made in house
# T1 sequence (Q9H8M2 136-240 limits assumed): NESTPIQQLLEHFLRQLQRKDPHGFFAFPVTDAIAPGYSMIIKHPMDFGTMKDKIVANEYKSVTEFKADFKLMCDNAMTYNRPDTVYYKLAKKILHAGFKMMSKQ
# Description: (§1) Experiments were carried out on an ITC200 titration microcalorimeter from MicroCal, LLC (GE Healthcare) equipped with a Washing module, with a cell volume of 0.2003 mL, and a 40 μL microsyringe. Experiments were carried out at 15 °C while stirring at 1000 rpm, in ITC buffer (50 mM HEPES, pH 7.5 (at 25 °C), 150 mM NaCl). The microsyringe was loaded with a solution of the protein sample (300−740 μM protein for BRD9 and BRD4(1), respectively, in ITC buffer) and was carefully inserted into the calorimetric cell which was filled with an amount of the ligand (0.2 mL, 20–25 μM in ITC buffer). The system was first allowed to equilibrate until the cell temperature reached 15 °C, and an additional delay of 60 s was applied. All titrations were conducted using an initial control injection of 0.3 μL followed by 38 identical injections of 1 μL with a duration of 2 s (per injection) and a spacing of 120 s between injections. The titration experiments were designed in such a fashion as to ensure complete saturation of the proteins before the final injection. The heat of dilution for the proteins was independent of their concentration and corresponded to the heat observed from the last injection, following saturation of ligand binding, thus facilitating the estimation of the baseline of each titration from the last injection. The collected data were corrected for protein heats of dilution (measured on separate experiments by titrating the proteins into ITC buffer) and deconvoluted using the MicroCal Origin software supplied with the instrument to yield enthalpies of binding (ΔH) and binding constants (KB) in the same fashion as that previously described in detail by Wiseman and co-workers.[66] Thermodynamic parameters were calculated using the basic equation of thermodynamics (ΔG = ΔH – TΔS = −RT ln KB, where ΔG, ΔH, and ΔS are the changes in free energy, enthalpy, and entropy of binding, respectively). In all cases a single binding site model was employed, supplied with the MicroCal Origin software package.
# [2] = target: T2, PCAF (Homo sapiens, UniProt Q92831); assay: Protein stability (thermal) shift assay, PCAF; conditions: compound 10 μM, protein 2 μM; average of triplicate
# T2 construct: representative BRDs from other structural subfamilies (family I, PCAF); made in house
# T2 sequence (Q92831 723-827 limits assumed): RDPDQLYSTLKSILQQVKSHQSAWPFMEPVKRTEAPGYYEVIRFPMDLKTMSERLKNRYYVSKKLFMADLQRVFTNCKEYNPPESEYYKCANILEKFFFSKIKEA
# Description: (§2) Thermal melting experiments were carried out using an Mx3005p real time PCR machine (Stratagene). Proteins were buffered in 10 mM HEPES, pH 7.5, 500 mM NaCl and assayed in a 96-well plate at a final concentration of 2 μM in 20 μL volume. Compounds were added at a final concentration of 10 or 100 μM. SYPRO Orange (Molecular Probes) was added as a fluorescence probe at a dilution of 1 in 1000. Excitation and emission filters for the SYPRO-Orange dye were set to 465 and 590 nm, respectively. The temperature was raised with a step of 3 °C per minute from 25 to 96 °C, and fluorescence readings were taken at each interval. The temperature dependence of the fluorescence during the protein denaturation process was approximated by the equation [drawing 1] where ΔuG is the difference in unfolding free energy between the folded and unfolded state, R is the gas constant, and yF and yU are the fluorescence intensity of the probe in the presence of completely folded and unfolded protein, respectively.[65] The baselines of the denatured and native states were approximated by a linear fit. The observed temperature shifts, ΔTm^obs, were recorded as the difference between the transition midpoints of sample and reference wells containing protein without ligand in the same plate and determined by nonlinear least-squares fit. Temperature shifts (ΔTm^obs) for three independent measurements per proteins/compound are summarized in Supporting Information Table S1.
# [3] = target: T3, BRD3(2) (Homo sapiens, UniProt Q15059); assay: Protein stability (thermal) shift assay, BRD3(2); conditions: compound 10 μM, protein 2 μM; average of triplicate
# T3 construct: made in house
# Description: as §2
# [4] = target: T4, BRD3(1) (Homo sapiens, UniProt Q15059); assay: Protein stability (thermal) shift assay, BRD3(1); conditions: compound 10 μM, protein 2 μM; average of triplicate
# T4 construct: Fragments were tested in a thermal shift assay against bromodomains of the BET subfamily; made in house
# Description: as §2
# [5] = target: T5, BRD2(2) (Homo sapiens, UniProt P25440); assay: Protein stability (thermal) shift assay, BRD2(2); conditions: compound 10 μM, protein 2 μM; average of triplicate
# T5 construct: made in house
# Description: as §2
# [6] = target: T6, BRD4(1) (Homo sapiens, UniProt O60885); assay: Isothermal titration calorimetry, BRD4(1)
# T6 construct: made in house
# Description: as §1
# [7] = target: T7, PB1(5) (Homo sapiens, UniProt Q86U86); assay: Protein stability (thermal) shift assay, PB1(5); conditions: compound 10 μM, protein 2 μM; average of triplicate
# T7 construct: made in house
# Description: as §2
# [8] = target: T8, BRD4(2) (Homo sapiens, UniProt O60885); assay: Protein stability (thermal) shift assay, BRD4(2); conditions: compound 10 μM, protein 2 μM; average of triplicate
# T8 construct: made in house
# Description: as §2
# [9] = target: T9, BAZ2B (Homo sapiens, UniProt Q9UIF8); assay: Protein stability (thermal) shift assay, BAZ2B; conditions: compound 10 μM, protein 2 μM; average of triplicate; read-out: ΔTm Shift, BAZ2BA
# T9 construct: representative BRDs from other structural subfamilies (family I, PCAF); family III, CREBBP; family IV, BRD9; family V, BAZ2B; made in house
# T9 sequence (Q9UIF8 2060-2164 limits assumed): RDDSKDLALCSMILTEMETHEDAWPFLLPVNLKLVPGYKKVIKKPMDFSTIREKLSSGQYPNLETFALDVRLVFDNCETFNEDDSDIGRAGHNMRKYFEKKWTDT
# Description: as §2
# [10] = target: T6, BRD4(1); assay: Protein stability (thermal) shift assay, BRD4(1)
# Description: as §2
# [11] = target: T10, BRDT(1) (Homo sapiens, UniProt Q58F21); assay: Protein stability (thermal) shift assay, BRDT(1); conditions: compound 10 μM, protein 2 μM; average of triplicate
# T10 construct: made in house
# Description: as §2
# [12] = target: T11, BRDT(2) (Homo sapiens, UniProt Q58F21); assay: Protein stability (thermal) shift assay, BRDT(2); conditions: compound 10 μM, protein 2 μM; average of triplicate; read-out: ΔTm Shift, BRDT(2)
# T11 construct: made in house
# Description: as §2
# [13] = target: T1, BRD9; assay: Protein stability (thermal) shift assay, BRD9
# Description: as §2
# [14] = target: T12, BRD2(1) (Homo sapiens, UniProt P25440); assay: Protein stability (thermal) shift assay, BRD2(1); conditions: compound 10 μM, protein 2 μM; average of triplicate
# T12 construct: Fragments were tested in a thermal shift assay against bromodomains of the BET subfamily; made in house
# Description: as §2
# [15] = target: T13, CREBBP (Homo sapiens, UniProt Q92793); assay: Protein stability (thermal) shift assay, CREBBP
# T13 construct: small thermal shits (1.0–1.3 °C) for the bromodomain of CREBBP; made in house
# Description: as §2
# [16] = tested on: human bromodomains (panel); assay: Protein stability (thermal) shift assay, whole panel of human bromodomains; conditions: 10 μM compound
# Description: as §2
# [17] = thermal shift, 10 μM compound, 2 μM protein, read-out: ΔTm
# [18] = compound 10 μM, protein 2 μM, average of triplicate, read-out: ΔTm Shift, CREBBP
# [19] = compound 10 μM, protein 2 μM, average of triplicate, read-out: ΔTm Shift, BRD4(1)
# [20] = compound 10 μM, protein 2 μM, average of triplicate, read-out: ΔTm Shift, BRD9
# T4 sequence (Q15059 34-140 limits assumed): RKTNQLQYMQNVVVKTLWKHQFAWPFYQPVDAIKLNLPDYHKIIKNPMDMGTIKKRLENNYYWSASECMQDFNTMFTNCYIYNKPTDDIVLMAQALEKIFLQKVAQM
# T3 sequence (Q15059 306-415 limits assumed): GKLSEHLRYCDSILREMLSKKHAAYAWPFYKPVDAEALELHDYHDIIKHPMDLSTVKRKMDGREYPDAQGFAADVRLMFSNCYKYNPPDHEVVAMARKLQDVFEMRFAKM
# T12 sequence (P25440 74-180 limits assumed): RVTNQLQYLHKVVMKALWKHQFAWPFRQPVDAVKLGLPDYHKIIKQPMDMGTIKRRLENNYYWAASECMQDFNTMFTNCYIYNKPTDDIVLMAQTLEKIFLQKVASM
# T7 sequence (Q86U86 653-763 limits assumed): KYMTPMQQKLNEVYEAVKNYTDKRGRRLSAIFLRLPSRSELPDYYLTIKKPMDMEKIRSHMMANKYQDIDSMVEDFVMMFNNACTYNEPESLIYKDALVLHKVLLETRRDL
# T5 sequence (P25440 344-453 limits assumed): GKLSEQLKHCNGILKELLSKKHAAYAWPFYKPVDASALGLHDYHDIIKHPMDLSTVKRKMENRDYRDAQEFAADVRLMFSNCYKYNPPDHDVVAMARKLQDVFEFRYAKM
# T13 sequence (Q92793 1085-1192 limits assumed): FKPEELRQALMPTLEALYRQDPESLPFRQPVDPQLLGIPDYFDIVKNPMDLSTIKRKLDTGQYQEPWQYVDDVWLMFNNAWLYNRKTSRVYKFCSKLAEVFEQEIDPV
Structure (SMILES),Kd [1] [µM],TΔS [1],ΔG [1],N (stoichiometry) [1],ΔHobs [1],LE (ligand efficiency) [1],ΔTm at 10 µM [2] [°C],ΔTm at 10 µM [3] [°C],ΔTm at 10 µM [4] [°C],ΔTm at 10 µM [5] [°C],ΔTm at 10 µM [7] [°C],ΔTm at 10 µM [8] [°C],ΔTm at 10 µM [9] [°C],ΔTm at 10 µM [11] [°C],ΔTm at 10 µM [12] [°C],"ΔTm at 10 µM [13, 17] [°C]",ΔTm at 10 µM [14] [°C],"ΔTm at 10 µM [15, 18] [°C]","ΔTm at 10 µM [10, 19] [°C]","ΔTm at 10 µM [13, 20] [°C]",other results
"COc1ccc(Cl)cc1-c1nc(N)nc2[nH]cnc12 [Compound 7c, 2-Amino-6-(5-chloro-2-methoxyphenyl)-9H-purine]",0.297 ± 0.01,–3.46 kcal/mol,–8.59 kcal/mol,0.98 ± 0.003,–12.05 ± 0.04 kcal/mol,0.45,-0.9,1.3,0.9,1.2,0.272,0.7,0.272,0.272,0.272,3.8,0.4,0.272,,,"Kd ([6]; ITC, 50 mM HEPES pH 7.5, 150 mM NaCl, 15 °C, reverse titration, triplicate, read-out: KD): 2.04 ± 0.118 µM; TΔS ([6]; ITC, 15 °C): 1.29 kcal/mol; ΔG ([6]; ITC, 15 °C): –7.50 kcal/mol; N (stoichiometry) ([6]; ITC, 15 °C, reverse titration): 1.05 ± 0.012; ΔHobs ([6]; ITC, 15 °C, reverse titration): –6.21 ± 0.09 kcal/mol; Kd ([6]; ITC, read-out: dissociation constant): 2.04 µM; LE (ligand efficiency) ([6]; LE = ΔG/N, N number of non-hydrogen atoms): 0.39; ΔTm at 10 µM [10, 17]: 1.1 °C"
"Cn1cnc2c(NCc3ccccc3)nc(NCCO)nc21 [olomoucine, reference compound]",,,,,,,,,,,,,,,,,,,,,binding to the bromodomain panel in the ΔTm assay (in words) [16]: did not show any significant stabilization
"COc1ccc(F)cc1-c1nc(N)nc2[nH]cnc12 [Compound 7b, 2-Amino-6-(5-fluoro-2-methoxyphenyl)-9H-purine]",0.351 ± 0.018,–4.52 kcal/mol,–8.52 kcal/mol,0.97 ± 0.004,–13.04 ± 0.07 kcal/mol,0.45,-0.151,0.8,0.548,0.8,0.5,0.1,0.3,-0.111,3,,0.3,0.356,0.369,2.6,

# The next lines start with results.
Kd [1] [µM],TΔS [1],ΔG [1],N (stoichiometry) [1],ΔHobs [1],LE (ligand efficiency) [1],ΔTm at 10 µM [2] [°C],ΔTm at 10 µM [3] [°C],ΔTm at 10 µM [4] [°C],ΔTm at 10 µM [5] [°C],ΔTm at 10 µM [7] [°C],ΔTm at 10 µM [8] [°C],ΔTm at 10 µM [9] [°C],ΔTm at 10 µM [11] [°C],ΔTm at 10 µM [12] [°C],"ΔTm at 10 µM [13, 17] [°C]",ΔTm at 10 µM [14] [°C],"ΔTm at 10 µM [15, 18] [°C]","ΔTm at 10 µM [10, 19] [°C]","ΔTm at 10 µM [13, 20] [°C]",Structure (SMILES),other results
0.641 ± 0.033,,–8.16 kcal/mol,1.06 ± 0.004,–12.71 ± 0.07 kcal/mol,0.45,-0.7,2.5,1.4,1.7,0.236,-2.2,-0.217,0.6,1.4,2.9,0.6,,2.3,,"COc1ccccc1-c1nc(N)nc2[nH]cnc12 [Compound 7a, 2-Amino-6-(2-methoxyphenyl)-9H-purine]","ΔTm at 10 µM [15, 17]: 1.5 °C"
,,,,,,-0.4,1.3,0.341,0.4,0.4,-1.3,0.0167,-0.122,0.364,,0.167,0.34,0.7,-0.1,"COc1cccc(OC)c1-c1nc(N)nc2[nH]cnc12 [Compound 6a, 2-Amino-6-(2,6-dimethoxyphenyl)-9H-purine]",
